{"source": "patent US20150236379A1", "about": "“ADDITIVES FOR GALVANIC CELLS” (ROCKWOOD LITHIUM GMBH, priority 2012, published 2015)", "key": {"[1]": {"assay": "Thermal stability, thermogravimetric experiment under argon flow", "type": "physicochemical", "protocol": "In a 1-L round-bottom glass flask, 38.67 g boric acid and […] oxalic acid dihydrate were suspended in 121 g water. 102.9 g cesium carbonate was added in portions, with magnetic stirring (vigorous foaming due to CO2 generation). After the addition was complete, the white suspension was evaporated on a rotary evaporator, initially at 100° C. and 400 mbar. The colorless solid residue was then ground and subjected to final drying at 180° C. and 20 mbar for 3 h. • Yield: 197.3 g of colorless powder (97% of theoretical) • Cs content: 41.0% • […] ^11B=7.4 ppm (solution in DMSO-d6) • Thermal stability: 290° C. (onset of thermal decomposition in the thermogravimetric experiment under argon flow)"}, "[2]": {"assay": "Additive salt solubility in lithium conducting salt electrolyte solutions"}, "[3]": {"assay": "Cs content (FES) in filtered electrolyte solution after stirring with excess additive", "type": "physicochemical", "details": "stirred 24 h, membrane filtered", "protocol": "(§1) In an Ar-filled glove box, 10 g of an 11 wt.-% LiBOB solution in ethylene carbonate/ethylmethyl carbonate (1:1, wt./wt.) was mixed with 0.32 g CsBOB and magnetically stirred for 24 h. The suspension was then filter-clarified by membrane filtration ([…] PTFE). • Cs content (FES) in the electrolyte solution: 0.05 wt.-%\nas §1, with “a 10 wt-% […]” for “an 11 wt.-% LiBOB”, “0.47” for “0.32”, “CsClO4” for “CsBOB”, “0.07” for “0.05”"}, "[4]": {"assay": "Solubility in conventional battery solvents", "type": "physicochemical", "text": "This was not to be expected, since it is known that many Cs salts having large, weakly coordinating anions are relatively poorly soluble in water (A. Nadjafi, Microchim. Acta 1973, 689-696).\nThe abbreviation BOB stands for bis-(oxalato)borate (C4O8B)^−, BMB for bis-(malonato)borate (C6H4O8B)^−, NMP for N-methylpyrrolidone, EC for ethylene carbonate, DMC for dimethyl carbonate, EMC for ethyl methyl carbonate and PC for propylene carbonate."}, "[5]": {"details": "cited from earlier work"}, "[6]": {"details": "supporting electrolyte LiBOB, 10% EC/EMC"}, "[7]": {"details": "supporting electrolyte LiPF6, 10% EC/EMC"}}, "note": "Like-named read-outs stand apart in the source and are kept apart here."}
{"smiles": "O=C1O[B-]2(OC1=O)OC(=O)C(=O)O2.[Cs+]", "note": "[CsBOB, Cesium bis(oxalato)borate]", "values": [{"measurement": "Thermal stability (onset of thermal decomposition)", "setting": "[1]", "value": 290, "unit": "°C"}, {"measurement": "Additive Salt Solubility", "setting": "[2]; [6]", "value": 4, "unit": "mM"}, {"measurement": "Additive Salt Solubility (wt.-%)", "setting": "[2]; [6]", "value": 0.12, "unit": "wt.-%"}, {"measurement": "Additive Salt Solubility", "setting": "[2]; [7]", "value": 40, "unit": "mM"}, {"measurement": "Additive Salt Solubility (wt.-%)", "setting": "[2]; [7]", "value": 1.2, "unit": "wt.-%"}, {"measurement": "Cs content (FES) in the electrolyte solution", "setting": "[3]; 11 wt.-% LiBOB in EC/EMC (1:1, wt./wt.)", "value": 0.05, "unit": "wt.-%"}, {"measurement": "Solubility", "setting": "[4]; solvent EC/DMC (1:1)", "value": 70, "unit": "mM"}, {"measurement": "Solubility (Wt. %)", "setting": "[4]; solvent EC/DMC (1:1)", "value": 1.8, "unit": "Wt. %"}, {"measurement": "Solubility", "setting": "[4]; solvent NMP", "value": 270, "unit": "mM"}, {"measurement": "Solubility (Wt. %)", "setting": "[4]; solvent NMP", "value": 7.9, "unit": "Wt. %"}, {"measurement": "Solubility", "setting": "[4]; solvent PC", "value": 60, "unit": "mM"}, {"measurement": "Solubility (Wt. %)", "setting": "[4]; solvent PC", "value": 1.5, "unit": "Wt. %"}]}
{"smiles": "O=C1CC(=O)O[B-]2(O1)OC(=O)CC(=O)O2.[Cs+]", "note": "[CsBMB]", "values": [{"measurement": "Solubility", "setting": "[4]", "value": 50, "unit": "mM"}, {"measurement": "Solubility (Wt. %)", "setting": "[4]", "value": 1.8, "unit": "Wt. %"}]}
{"smiles": "O=C1O[B-]2(OC1=O)OC(=O)C(=O)O2.[Rb+]", "note": "[RbBOB]", "values": [{"measurement": "Additive Salt Solubility", "setting": "[2]; [6]", "value": 1, "unit": "mM"}, {"measurement": "Additive Salt Solubility (wt.-%)", "setting": "[2]; [6]", "value": 0.03, "unit": "wt.-%"}, {"measurement": "Additive Salt Solubility", "setting": "[2]; [7]", "value": 40, "unit": "mM"}, {"measurement": "Additive Salt Solubility (wt.-%)", "setting": "[2]; [7]", "value": 1.2, "unit": "wt.-%"}, {"measurement": "Solubility", "setting": "[4]", "value": 30, "unit": "mM"}, {"measurement": "Solubility (Wt. %)", "setting": "[4]", "value": 0.64, "unit": "Wt. %"}]}
{"smiles": "[Cs+].[O-][Cl+3]([O-])([O-])[O-]", "note": "[CsClO4, cesium perchlorate]", "values": [{"measurement": "solubility in water", "setting": "[5]; 0° C.", "value": 0.8, "unit": "g/100 mL"}, {"measurement": "solubility in water", "setting": "[5]; 25° C.", "value": 1.97, "unit": "g/100 mL"}, {"measurement": "Additive Salt Solubility", "setting": "[2]; [6]", "value": 5, "unit": "mM"}, {"measurement": "Additive Salt Solubility (wt.-%)", "setting": "[2]; [6]", "value": 0.12, "unit": "wt.-%"}, {"measurement": "Additive Salt Solubility", "setting": "[2]; [7]", "value": 40, "unit": "mM"}, {"measurement": "Additive Salt Solubility (wt.-%)", "setting": "[2]; [7]", "value": 0.9, "unit": "wt.-%"}, {"measurement": "Cs content (FES) in the electrolyte solution", "setting": "[3]; 10 wt-% LiPF5 in EC/EMC (1:1, wt./wt.)", "value": 0.07, "unit": "wt.-%"}, {"measurement": "Solubility", "setting": "[4]; solvent PC", "value": 70, "unit": "mM"}, {"measurement": "Solubility (Wt. %)", "setting": "[4]; solvent PC", "value": 1.3, "unit": "Wt. %"}]}
